Experiment [1] relates to GH-secretion (serum GH-level). Put plainly: TEST I: depression of serum GH-levels in the rat (GH-secretion inhibition). Type of experiment: in vivo. To be noted: male rats under Nembutal narcosis, 15 minutes after administration. The method, then: This test (TEST I) is carried out employing male rats under Nembutal narcosis. The test-substance is administered at varying, logarithmically staggered doses employing at least 4 rats per dose. The rats are decapitated 15 minutes after administration, the blood is collected and the serum GH-level determined by radio-immuno-assay.
Polypeptides in accordance with the invention are active in this test when administered at a dosage in the range of from 0.01 to 100 μg/kg i.v. or i.m.

For a further experiment, the system named is gastric secretion. Put plainly: TEST II: inhibition of pentagastrin-stimulated gastric secretion in pylorus-ligated rats. Type of experiment: in vivo, rat. To be noted: i.m., 100 μg/kg pentagastrin s.c., 30 mins. The method, then:
Male rats (220-280 g) are kept in the laboratory in individual cages for several days (14 hours light/day) with 48 hours fasting (but free access to water) immediately prior to the experiment. At start of the experiment the pylorus is ligated under ether anaesthesia and 100 μg/kg pentagastrin are injected s.c. to stimulate gastric secretion. The test compounds are injected simultaneously i.m. 30 mins. later the animals are sacrificed, the volume of gastric juice measured and the acid concentration estimated (titration with thymol blue). The acid output is calculated and the percent inhibition estimated in relation to untreated controls.
Polypeptides in accordance with the invention are active in this test when administered at a dosage in the range of from 0.01 to 100 μg/kg i.m.

For `C[C@H](N)C(=O)NCC(=O)N[C@H]1CSSC[C@@H](C(=O)O)NC(=O)[C@H](CO)NC(=O)[C@H]([C@@H](C)O)NC(=O)[C@H](Cc2ccccc2)NC(=O)[C@H]([C@@H](C)O)NC(=O)[C@H](CCCCN)NC(=O)[C@H](Cc2c[nH]c3ccccc23)NC(=O)[C@H](Cc2ccccc2)NC(=O)[C@H](Cc2ccccc2)NC(=O)[C@H](CC(N)=O)NC(=O)[C@H](CCCCN)NC1=O` [somatostatin], the “ID50 in TEST I (amount required to effect 50% inhibition of serum GH-level compared with untreated controls)” value in experiment [1] (i.m.) was determined as 0.0056 mg/kg. The “ID50 in TEST I (amount required to effect 50% inhibition of serum GH-level compared with untreated controls)” value in experiment [1] (i.v.) was 0.062 mg/kg. Moreover, in the experiment on gastric secretion, the “ID50 in TEST II for acid concentration” value is 0.035 mg/kg and the “ID50 in TEST II for gastric juice content” value amounted to 0.055 mg/kg.
`C[C@@H](O)[C@@H]1NC(=O)[C@H](CCCCN)NC(=O)[C@@H](Cc2c[nH]c3ccccc23)NC(=O)[C@H](Cc2ccccc2)NC(=O)[C@@H](NC(=O)[C@H](N)Cc2ccccc2)CSSC[C@@H](C(=O)N[C@H](CO)[C@@H](C)O)NC1=O` [Example 1]: in the experiment with gastric secretion, the “ID50 in TEST II for acid concentration” value was determined as 0.0004 mg/kg and the “ID50 in TEST II for gastric juice content” value is 0.0007 mg/kg.
